From patent US5981558A, “DC107 derivatives” (Kyowa Hakko Kogyo Co., Ltd., priority 1996, dated 1999)
≈ marks a conversion by molar mass, not a printed value. Like-named read-outs stand apart in the source and are kept apart here.

Columns and labels:
[1] = tested on: EH: Enterococcus hirae ATCC 10541; assay: Antimicrobial activity by the agar dilution method (MIC); format: cell-based; conditions: pH 7
Method: (§1) Antimicrobial activity was determined by the agar dilution method using a culture medium (pH 7) prepared by dissolving 3 g of Bacto-Tryptone (manufactured by Difco, Co.), 3 g of meat extract, 1 g of yeast extract, 1 g of glucose, and 16 g of agar in 1 l of water.

[2] = tested on: SA: Staphylococcus aureus ATCC 6538P; assay: as above; format: cell-based; conditions: ATCC6538P
Method: as §1

[3] = tested on: BS: Bacillus substilis No. 10707; assay: as above; format: cell-based
Method: as §1

[4] = tested on: KP: Klebisiella pneumoniae ATCC 10031; assay: as above; format: cell-based
Method: as §1

HeLa S3 cells = assay: HeLa S3 Cell Growth Inhibition Test; format: cell-based; conditions: Homo sapiens, 72 hours incubation, Neutral Red
In short: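 HeLa S3 cells seeded overnight in MEM with 10% FBS, then exposed to compound for 72 h at 37 °C. Viable cells stained with Neutral Red, dye extracted, absorbance read at 550 nm; IC50 derived against untreated cells.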

[5] = tested on: Sarcoma 180 mouse solid tumor; assay: Antitumor activity against Sarcoma 180 mouse solid tumor; format: in vivo, mouse (ddY); conditions: Sarcoma-180, iv, 168 h; for response vs control in vivo at 4 mg/kg: 4.0 mg/kg i.v. once
Method: To a ddY mouse were intraperitoneally transplanted 5×10^6 sarcoma 180 cells. On the seventh day from the transplant, the cells were collected from the ascites, washed once with sterilized physiological saline, and then diluted with sterilized physiological saline to prepare a cell suspension having a concentration of 5×10^7 cells/mL. This suspension was transplanted in an amount of 0.01 mL to a subcutaneous part of the right axilla of each of male ddY mice each weighing 20±1 g.
A test compound was dissolved in physiological saline containing polyoxyethylene sorbitan monolaurate. At 24 hours after the tumor transplant, 0.2 mL of the solution was intravenously administered to the tail of each of a group of five mice.

[6] = Staphylococcus aureus ATCC 6538P, agar dilution, pH 7, read-out: minimum inhibitory concentration (MIC), SA
[7] = Bacillus substilis No. 10707, agar dilution, pH 7, read-out: minimum inhibitory concentration (MIC), BS
[8] = Klebisiella pneumoniae ATCC 10031, agar dilution, pH 7, read-out: minimum inhibitory concentration (MIC), KP
[9] = HeLa S3, 72 h, HeLa S3, read-out: IC50, HeLa S3 cell growth inhibition
[10] = 24 hours after transplant, tumor volume on day 7, read-out: T/C (tumor volume ratio treated/control)
[11] = Staphylococcus aureus, pH 7, read-out: minimum inhibitory concentration (MIC), SA
[12] = Bacillus, pH 7, read-out: minimum inhibitory concentration (MIC), BS
[13] = pH 7, read-out: minimum inhibitory concentration (MIC), KP
[14] = HeLa S3, 72 h, read-out: IC50, HeLa S3 cell growth inhibition, HeLa S3
[15] = read-out: T/C (tumor volume ratio treated/control)
[16] = 8.0 mg/kg i.v. once, 24 hours after transplant, tumor volume on day 7, read-out: T/C (tumor volume ratio treated/control)
[17] = HeLa S3, read-out: IC50, HeLa S3 cell growth inhibition
[18] = 16 mg/kg i.v. once, 24 hours after transplant, tumor volume on day 7, read-out: T/C (tumor volume ratio treated/control)

## COC(=O)NCC(=O)OCOC1C=C(C)CCC2(C(C)(O)C(=O)SCOC(=O)CNC(=O)OC)CC(=O)N(C(C)c3nc(cs3)C=CC=CC1=O)[S+]2[O-] (stereo not drawn) [Compound 18]
[1]
  minimum inhibitory concentration (MIC), EH: 5.7 µg/mL (≈ 7.12 µM)
[2]; [6]
  MIC: 11 µg/mL (≈ 13.7 µM)
[3]; [7]
  MIC: 11 µg/mL (≈ 13.7 µM)
[4]; [8]
  MIC: 2.9 µg/mL (≈ 3.62 µM)
HeLa S3 cells; [9]
  IC50: 150 nM
[5]; [10]
  response vs control in vivo at 4 mg/kg: 38%

## COC(=O)[C@H](CCC(=O)OCSC(=O)C(C)(O)C12CCC(C)=CC(O)C(=O)C=CC=Cc3csc(n3)C(C)N(C(=O)C1)[S+]2[O-])NC(=O)[C@@]12O[C@H]3COC(C)(C)O[C@H]3[C@@H]1OC(C)(C)O2 (stereo partly drawn) [Compound 24]
[1]
  minimum inhibitory concentration (MIC), EH: 23 µg/mL (≈ 24.5 µM)
[2]; [11]
  MIC: 23 µg/mL (≈ 24.5 µM)
[3]; [12]
  MIC: 23 µg/mL (≈ 24.5 µM)
[4]; [13]
  MIC: 46 µg/mL (≈ 48.9 µM)
HeLa S3 cells; [14]
  IC50: 550 nM
[5]; [15]
  response vs control in vivo at 16 mg/kg: 12%

## C/C1=C\C(OC2CCCCO2)C(=O)/C=C/C=C\c2csc(n2)C(C)N2C(=O)CC(C(C)(O)C(=O)SCOC(=O)CCNC(=O)[C@H]3O[C@@H]4OC(C)(C)O[C@@H]4[C@H]4OC(C)(C)O[C@H]43)(CC1)[S+]2[O-] (stereo partly drawn) [Compound 45]
HeLa S3 cells; [14]
  IC50: 44 nM
[5]; [15]
  response vs control in vivo at 8 mg/kg: 45%

## CC(=O)Oc1ccc(C(=O)OCSC(=O)C(C)(O)C23CC/C(C)=C/C(OC4CCCCO4)C(=O)/C=C/C=C\c4csc(n4)C(C)N(C(=O)C2)[S+]3[O-])cc1 (stereo not drawn) [Compound 53]
HeLa S3 cells; [9]
  IC50: 35 nM
[5]; [16]
  response vs control in vivo at 8 mg/kg: 50%

## CC(=O)Oc1cccc(C(=O)OCSC(=O)C(C)(O)C23CC/C(C)=C/C(OC4CCCCO4)C(=O)/C=C/C=C\c4csc(n4)C(C)N(C(=O)C2)[S+]3[O-])c1 (stereo not drawn) [Compound 54]
HeLa S3 cells; [9]
  IC50: 15 nM
[5]; [10]
  response vs control in vivo at 4 mg/kg: 47%

## COC(=O)[C@H](CCC(=O)OCSC(=O)C(C)(O)C12CC/C(C)=C/C(O)C(=O)/C=C/C=C\c3csc(n3)C(C)N(C(=O)C1)[S+]2[O-])NC(=O)[C@@]12O[C@@H](CO)[C@@H](O)[C@@H]1OC(C)(C)O2 (stereo partly drawn) [Compound 60]
[1]
  minimum inhibitory concentration (MIC), EH: 7.3 µg/mL (≈ 8.11 µM)
[2]; [11]
  MIC: 15 µg/mL (≈ 16.7 µM)
[3]; [12]
  MIC: 15 µg/mL (≈ 16.7 µM)
[4]; [13]
  MIC: 15 µg/mL (≈ 16.7 µM)
HeLa S3 cells; [14]
  IC50: 550 nM
[5]; [15]
  response vs control in vivo at 8 mg/kg: 31%

## C/C1=C\C(OC2CCCCO2)C(=O)/C=C/C=C\c2csc(n2)C(C)N2C(=O)CC(C(C)(O)C(=O)SCOC(=O)CCNC(=O)[C@@]34O[C@@H](CO)[C@@H](O)[C@@H]3OC(C)(C)O4)(CC1)[S+]2[O-] (stereo partly drawn) [Compound 64]
HeLa S3 cells; [14]
  IC50: 35 nM
[5]; [15]
  response vs control in vivo at 8 mg/kg: 43%

## COCOCc1oc(=O)oc1CSC(=O)C(C)(O)C12CC/C(C)=C/C(OC3CCCCO3)C(=O)/C=C/C=C\c3csc(n3)C(C)N(C(=O)C1)[S+]2[O-] (stereo not drawn) [Compound 78]
HeLa S3 cells; [9]
  IC50: 2.2 nM
[5]; [16]
  response vs control in vivo at 8 mg/kg: 50%

## C/C1=C\C(O)C(=O)/C=C/C=C\c2csc(n2)C(C)N2C(=O)CC(C(C)(O)C(=O)SCc3oc(=O)oc3COC3C[C@H](O[Si](C)(C)C(C)(C)C)[C@@H](O[Si](C)(C)C(C)(C)C)[C@H](C)O3)(CC1)[S+]2[O-] (stereo partly drawn) [Compound 79]
HeLa S3 cells; [17]
  IC50: 790 nM
[5]; [16]
  response vs control in vivo at 8 mg/kg: 45%

## C/C1=C\C(OC2CCCCO2)C(=O)/C=C/C=C\c2csc(n2)C(C)N2C(=O)CC(C(C)(O)C(=O)SCc3oc(=O)oc3COC3C[C@H](O[Si](C)(C)C(C)(C)C)[C@@H](O[Si](C)(C)C(C)(C)C)[C@H](C)O3)(CC1)[S+]2[O-] (stereo partly drawn) [Compound 80]
[1]
  minimum inhibitory concentration (MIC), EH: 3.4 µg/mL (≈ 3.14 µM)
[2]; [6]
  MIC: 3.4 µg/mL (≈ 3.14 µM)
[3]; [7]
  MIC: 0.42 µg/mL (≈ 0.388 µM)
[4]; [8]
  MIC: 27 µg/mL (≈ 25 µM)
HeLa S3 cells; [17]
  IC50: 330 nM
[5]; [18]
  response vs control in vivo at 16 mg/kg: 37%

## CC[Si](CC)(CC)OC[C@H]1OC(OCc2oc(=O)oc2CSC(=O)C(C)(O)C23CC/C(C)=C/C(OC4CCCCO4)C(=O)/C=C/C=C\c4csc(n4)C(C)N(C(=O)C2)[S+]3[O-])C[C@@H](O[Si](CC)(CC)CC)[C@@H]1O[Si](CC)(CC)CC (stereo partly drawn) [Compound 82]
[1]
  minimum inhibitory concentration (MIC), EH: 4.2 µg/mL (≈ 3.47 µM)
[2]; [6]
  MIC: 2.1 µg/mL (≈ 1.73 µM)
[4]; [8]
  MIC: 33 µg/mL (≈ 27.2 µM)
HeLa S3 cells; [17]
  IC50: 800 nM
[5]; [18]
  response vs control in vivo at 16 mg/kg: 36%

## C/C1=C\C(OC2CCCCO2)C(=O)/C=C/C=C\c2csc(n2)C(C)N2C(=O)CC(C(C)(O)C(=O)SCc3oc(=O)oc3CO)(CC1)[S+]2[O-] (stereo not drawn) [Compound 87]
HeLa S3 cells; [14]
  IC50: 33 nM
[5]; [15]
  response vs control in vivo at 16 mg/kg: 40%

## C/C1=C\C(O)C(=O)/C=C/C=C\c2csc(n2)C(C)N2C(=O)CC(C(C)(O)C(=O)SCc3oc(=O)oc3COC=O)(CC1)[S+]2[O-] (stereo not drawn) [Compound 88]
HeLa S3 cells; [14]
  IC50: 320 nM
[5]; [15]
  response vs control in vivo at 8 mg/kg: 49%
